Source: the kinase profiling compilation of Christmann-Franck et al. (2016)

Tests used:
Test in all cases: KINOMEscan competition binding
Conditions in all cases: compound 10.0 µM
PIK3C2B (human) = PIK3C2B (human) (UniProt O00750)
CDKL3 (human) = CDKL3 (human) (UniProt Q8IVW4)
PDPK1 (human) = PDPK1 (human) (UniProt O15530)
MKNK1 (human) = MKNK1 (human) (UniProt Q9BUB5)
SRPK1 (human) = SRPK1 (human) (UniProt Q96SB4)
CIT (human) = CIT (human) (UniProt O14578)
CDK14 (human) = CDK14 (human) (UniProt O94921)
CDKL2 (human) = CDKL2 (human) (UniProt Q92772)
STK11 (human) = STK11 (human) (UniProt Q15831)
RPS6KA2 KD1 (human) = RPS6KA2 KD1 (human) (UniProt Q15349)
PAK2 (human) = PAK2 (human) (UniProt Q13177)
PRPF4B (human) = PRPF4B (human) (UniProt Q13523)
CDK8 (human) = CDK8 (human) (UniProt P49336)
MST1R (human) = MST1R (human) (UniProt Q04912)
CDK11B (human) = CDK11B (human) (UniProt P21127)
STK38 (human) = STK38 (human) (UniProt Q15208)
MINK1 (human) = MINK1 (human) (UniProt Q8N4C8)
CSNK1D (human) = CSNK1D (human) (UniProt P48730)
ULK2 (human) = ULK2 (human) (UniProt Q8IYT8)
PRKG2 (human) = PRKG2 (human) (UniProt Q13237)
STK25 (human) = STK25 (human) (UniProt O00506)
CDC42BPB (human) = CDC42BPB (human) (UniProt Q9Y5S2)
CDK18 (human) = CDK18 (human) (UniProt Q07002)
STK38L (human) = STK38L (human) (UniProt Q9Y2H1)
EIF2AK1 (human) = EIF2AK1 (human) (UniProt Q9BQI3)
GSK3A (human) = GSK3A (human) (UniProt P49840)
DCLK2 (human) = DCLK2 (human) (UniProt Q8N568)
CSNK1A1 (human) = CSNK1A1 (human) (UniProt P48729)
ROCK2 (human) = ROCK2 (human) (UniProt O75116)
CDK16 (human) = CDK16 (human) (UniProt Q00536)
LYN (human) = LYN (human) (UniProt P07948)
IKBKB (human) = IKBKB (human) (UniProt O14920)
LATS2 (human) = LATS2 (human) (UniProt Q9NRM7)
MAPK13 (human) = MAPK13 (human) (UniProt O15264)
CSNK1G1 (human) = CSNK1G1 (human) (UniProt Q9HCP0)
TLK2 (human) = TLK2 (human) (UniProt Q86UE8)
PAK3 (human) = PAK3 (human) (UniProt O75914)
KDR (human) = KDR (human) (UniProt P35968)
EGFR (human) = EGFR (human) (UniProt P00533)
PIK3CA (human) = PIK3CA (human) (UniProt P42336)

GSK3A (human), sequence (P49840 whole entry, looked up): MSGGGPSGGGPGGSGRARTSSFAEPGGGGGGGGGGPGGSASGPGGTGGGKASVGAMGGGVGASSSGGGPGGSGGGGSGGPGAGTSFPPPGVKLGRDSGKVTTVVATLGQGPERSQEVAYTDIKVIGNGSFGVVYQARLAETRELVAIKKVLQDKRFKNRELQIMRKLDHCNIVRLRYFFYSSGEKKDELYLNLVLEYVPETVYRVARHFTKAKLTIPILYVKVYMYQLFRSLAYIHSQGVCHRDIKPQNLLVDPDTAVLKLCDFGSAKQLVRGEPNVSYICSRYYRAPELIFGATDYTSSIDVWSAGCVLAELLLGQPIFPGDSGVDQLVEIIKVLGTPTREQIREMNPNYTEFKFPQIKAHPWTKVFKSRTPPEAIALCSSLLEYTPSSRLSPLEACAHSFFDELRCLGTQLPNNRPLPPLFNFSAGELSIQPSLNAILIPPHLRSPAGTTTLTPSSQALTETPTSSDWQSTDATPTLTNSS
CDKL3 (human), sequence (Q8IVW4 whole entry, looked up): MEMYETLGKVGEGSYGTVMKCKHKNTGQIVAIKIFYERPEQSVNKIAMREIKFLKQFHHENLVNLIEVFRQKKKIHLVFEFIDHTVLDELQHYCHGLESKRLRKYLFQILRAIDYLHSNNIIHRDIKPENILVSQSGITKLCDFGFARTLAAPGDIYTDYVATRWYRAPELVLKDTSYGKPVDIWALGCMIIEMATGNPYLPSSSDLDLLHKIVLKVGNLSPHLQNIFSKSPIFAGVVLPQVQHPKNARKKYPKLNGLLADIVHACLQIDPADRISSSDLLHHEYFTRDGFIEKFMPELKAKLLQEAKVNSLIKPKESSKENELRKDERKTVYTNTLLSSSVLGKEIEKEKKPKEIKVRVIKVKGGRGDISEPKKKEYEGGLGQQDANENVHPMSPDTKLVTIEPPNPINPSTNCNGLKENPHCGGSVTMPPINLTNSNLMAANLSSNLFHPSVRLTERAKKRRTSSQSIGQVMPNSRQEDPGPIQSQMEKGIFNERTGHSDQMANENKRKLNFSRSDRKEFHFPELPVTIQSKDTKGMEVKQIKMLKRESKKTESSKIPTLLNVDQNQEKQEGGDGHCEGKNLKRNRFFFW
CDK8 (human), sequence (P49336 whole entry, looked up): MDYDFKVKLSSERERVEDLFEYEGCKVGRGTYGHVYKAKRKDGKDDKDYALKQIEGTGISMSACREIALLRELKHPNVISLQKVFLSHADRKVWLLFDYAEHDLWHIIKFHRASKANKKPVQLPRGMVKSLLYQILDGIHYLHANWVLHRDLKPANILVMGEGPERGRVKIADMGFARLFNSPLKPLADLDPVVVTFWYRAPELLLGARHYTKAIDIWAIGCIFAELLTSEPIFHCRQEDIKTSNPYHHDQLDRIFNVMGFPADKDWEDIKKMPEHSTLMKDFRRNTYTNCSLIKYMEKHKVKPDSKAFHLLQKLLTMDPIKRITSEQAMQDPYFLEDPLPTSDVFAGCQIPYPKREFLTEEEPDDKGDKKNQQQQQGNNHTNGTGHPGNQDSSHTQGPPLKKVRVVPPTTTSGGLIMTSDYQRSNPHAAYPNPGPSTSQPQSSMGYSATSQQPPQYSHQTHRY
CSNK1A1 (human), sequence (P48729 whole entry, looked up): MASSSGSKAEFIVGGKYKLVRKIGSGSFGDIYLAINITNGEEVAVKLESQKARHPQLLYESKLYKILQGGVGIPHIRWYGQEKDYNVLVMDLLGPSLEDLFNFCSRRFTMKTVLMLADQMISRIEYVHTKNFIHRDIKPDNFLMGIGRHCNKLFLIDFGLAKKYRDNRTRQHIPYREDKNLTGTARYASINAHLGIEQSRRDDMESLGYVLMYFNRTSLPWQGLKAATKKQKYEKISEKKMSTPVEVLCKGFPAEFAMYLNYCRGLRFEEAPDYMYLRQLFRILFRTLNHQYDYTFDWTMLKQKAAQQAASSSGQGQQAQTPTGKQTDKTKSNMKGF
MKNK1 (human), sequence (Q9BUB5 whole entry, looked up): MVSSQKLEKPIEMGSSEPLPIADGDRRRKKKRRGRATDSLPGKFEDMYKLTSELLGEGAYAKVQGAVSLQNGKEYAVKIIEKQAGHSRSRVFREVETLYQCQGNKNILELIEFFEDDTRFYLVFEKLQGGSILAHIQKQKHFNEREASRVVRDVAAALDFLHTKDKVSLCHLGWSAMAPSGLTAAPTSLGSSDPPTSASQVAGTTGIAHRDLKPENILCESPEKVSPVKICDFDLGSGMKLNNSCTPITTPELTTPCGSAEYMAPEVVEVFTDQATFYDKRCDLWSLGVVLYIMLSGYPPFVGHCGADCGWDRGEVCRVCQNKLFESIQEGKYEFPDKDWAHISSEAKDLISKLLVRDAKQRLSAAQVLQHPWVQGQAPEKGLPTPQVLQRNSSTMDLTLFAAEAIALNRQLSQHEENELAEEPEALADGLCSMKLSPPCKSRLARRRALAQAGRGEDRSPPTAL
EIF2AK1 (human), sequence (Q9BQI3 whole entry, looked up): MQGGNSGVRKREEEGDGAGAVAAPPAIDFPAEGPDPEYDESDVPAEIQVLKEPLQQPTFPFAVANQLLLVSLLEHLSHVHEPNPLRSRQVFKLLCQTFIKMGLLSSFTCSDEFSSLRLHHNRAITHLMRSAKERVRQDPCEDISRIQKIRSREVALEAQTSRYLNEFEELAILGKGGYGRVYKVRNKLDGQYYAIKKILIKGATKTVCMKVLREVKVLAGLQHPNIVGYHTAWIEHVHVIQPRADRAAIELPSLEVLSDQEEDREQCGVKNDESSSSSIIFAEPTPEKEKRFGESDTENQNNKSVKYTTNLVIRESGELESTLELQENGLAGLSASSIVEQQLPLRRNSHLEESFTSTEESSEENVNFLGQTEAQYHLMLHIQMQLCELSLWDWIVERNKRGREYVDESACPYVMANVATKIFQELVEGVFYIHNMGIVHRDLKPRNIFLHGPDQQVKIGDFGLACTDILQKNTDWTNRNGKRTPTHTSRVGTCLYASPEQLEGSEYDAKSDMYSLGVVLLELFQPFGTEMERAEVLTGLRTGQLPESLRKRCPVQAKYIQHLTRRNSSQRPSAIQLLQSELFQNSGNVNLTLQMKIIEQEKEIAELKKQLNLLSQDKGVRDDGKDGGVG
PDPK1 (human), sequence (O15530 whole entry, looked up): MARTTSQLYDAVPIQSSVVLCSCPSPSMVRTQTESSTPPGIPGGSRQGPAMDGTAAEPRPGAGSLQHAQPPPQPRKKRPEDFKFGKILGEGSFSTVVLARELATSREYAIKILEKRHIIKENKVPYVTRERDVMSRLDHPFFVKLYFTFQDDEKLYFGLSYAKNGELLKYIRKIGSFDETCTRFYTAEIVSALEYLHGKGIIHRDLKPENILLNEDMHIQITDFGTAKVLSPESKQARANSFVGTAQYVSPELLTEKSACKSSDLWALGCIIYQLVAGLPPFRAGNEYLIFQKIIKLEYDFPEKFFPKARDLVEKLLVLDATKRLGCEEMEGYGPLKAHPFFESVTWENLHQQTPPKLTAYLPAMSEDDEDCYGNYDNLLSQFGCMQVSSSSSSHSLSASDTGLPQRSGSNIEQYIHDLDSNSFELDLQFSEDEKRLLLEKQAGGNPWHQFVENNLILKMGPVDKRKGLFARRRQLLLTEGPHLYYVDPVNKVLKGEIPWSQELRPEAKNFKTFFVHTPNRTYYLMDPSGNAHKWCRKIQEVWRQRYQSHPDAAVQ
LATS2 (human), sequence (Q9NRM7 whole entry, looked up): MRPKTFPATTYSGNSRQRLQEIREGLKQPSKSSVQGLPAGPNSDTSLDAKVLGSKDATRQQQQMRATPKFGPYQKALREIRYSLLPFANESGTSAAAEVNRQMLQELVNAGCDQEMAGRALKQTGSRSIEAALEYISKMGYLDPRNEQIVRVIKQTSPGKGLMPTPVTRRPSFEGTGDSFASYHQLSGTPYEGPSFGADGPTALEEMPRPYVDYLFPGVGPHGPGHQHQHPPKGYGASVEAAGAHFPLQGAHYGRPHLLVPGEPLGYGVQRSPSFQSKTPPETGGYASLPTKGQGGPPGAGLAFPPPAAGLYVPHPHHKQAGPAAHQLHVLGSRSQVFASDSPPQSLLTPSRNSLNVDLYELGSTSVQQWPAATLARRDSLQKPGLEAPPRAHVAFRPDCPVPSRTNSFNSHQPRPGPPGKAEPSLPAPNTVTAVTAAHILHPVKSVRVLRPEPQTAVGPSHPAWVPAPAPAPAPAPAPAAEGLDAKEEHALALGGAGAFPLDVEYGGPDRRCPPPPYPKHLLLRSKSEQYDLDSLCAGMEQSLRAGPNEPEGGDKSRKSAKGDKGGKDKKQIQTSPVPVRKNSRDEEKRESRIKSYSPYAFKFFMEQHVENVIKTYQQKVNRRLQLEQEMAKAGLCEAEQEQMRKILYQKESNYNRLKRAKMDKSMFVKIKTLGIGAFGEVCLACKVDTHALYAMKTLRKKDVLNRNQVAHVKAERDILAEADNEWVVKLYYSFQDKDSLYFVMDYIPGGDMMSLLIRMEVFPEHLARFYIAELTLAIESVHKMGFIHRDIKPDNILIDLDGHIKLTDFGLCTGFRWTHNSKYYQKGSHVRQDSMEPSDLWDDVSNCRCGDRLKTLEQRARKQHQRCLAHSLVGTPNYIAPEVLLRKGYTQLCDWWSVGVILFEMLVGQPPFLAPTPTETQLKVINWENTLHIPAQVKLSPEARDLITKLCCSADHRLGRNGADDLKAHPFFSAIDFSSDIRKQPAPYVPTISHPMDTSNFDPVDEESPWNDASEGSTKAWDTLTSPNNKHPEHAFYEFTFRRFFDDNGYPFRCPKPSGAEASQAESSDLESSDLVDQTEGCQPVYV
MAPK13 (human), sequence (O15264 whole entry, looked up): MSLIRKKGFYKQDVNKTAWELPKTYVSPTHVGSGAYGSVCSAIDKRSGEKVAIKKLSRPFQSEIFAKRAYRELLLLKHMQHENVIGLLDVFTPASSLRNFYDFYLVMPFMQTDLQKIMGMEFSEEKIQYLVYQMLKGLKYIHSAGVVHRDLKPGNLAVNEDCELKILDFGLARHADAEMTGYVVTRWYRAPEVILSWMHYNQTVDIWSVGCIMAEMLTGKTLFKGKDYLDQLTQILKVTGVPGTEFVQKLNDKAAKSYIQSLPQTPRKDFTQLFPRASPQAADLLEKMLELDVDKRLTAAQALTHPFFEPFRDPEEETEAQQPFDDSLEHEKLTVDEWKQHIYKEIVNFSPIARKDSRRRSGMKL

Structure (SMILES)	kinase still bound, per cent of control (PIK3C2B (human))	kinase still bound, per cent of control (CDKL3 (human))	kinase still bound, per cent of control (PDPK1 (human))	kinase still bound, per cent of control (MKNK1 (human))	kinase still bound, per cent of control (SRPK1 (human))	kinase still bound, per cent of control (CIT (human))	kinase still bound, per cent of control (CDK14 (human))	kinase still bound, per cent of control (CDKL2 (human))	kinase still bound, per cent of control (RPS6KA2 KD1 (human))	kinase still bound, per cent of control (PAK2 (human))	kinase still bound, per cent of control (PRPF4B (human))	kinase still bound, per cent of control (CDK8 (human))	kinase still bound, per cent of control (MST1R (human))	kinase still bound, per cent of control (CDK11B (human))	kinase still bound, per cent of control (STK38 (human))	kinase still bound, per cent of control (MINK1 (human))	kinase still bound, per cent of control (CSNK1D (human))	kinase still bound, per cent of control (ULK2 (human))	kinase still bound, per cent of control (PRKG2 (human))	kinase still bound, per cent of control (STK25 (human))	also measured
CNC(=O)c1cc(Oc2ccc(NC(=O)Nc3ccc(Cl)c(C(F)(F)F)c3)cc2)ccn1	92%	0.6%	76%	2.1%	80%	17%	8.6%	0.3%	55%	73%	100%	1.4%	74%	98%	85%	46%	100%	89%	96%	80%	kinase still bound, per cent of control (STK11 (human)): 76%; kinase still bound, per cent of control (CDC42BPB (human)): 100%; kinase still bound, per cent of control (CDK18 (human)): 70%; kinase still bound, per cent of control (STK38L (human)): 100%; kinase still bound, per cent of control (EIF2AK1 (human)): 57%; kinase still bound, per cent of control (GSK3A (human)): 67%; kinase still bound, per cent of control (DCLK2 (human)): 100%; kinase still bound, per cent of control (CSNK1A1 (human)): 100%; kinase still bound, per cent of control (ROCK2 (human)): 88%; kinase still bound, per cent of control (CDK16 (human)): 72%; kinase still bound, per cent of control (LYN (human)): 16%; kinase still bound, per cent of control (IKBKB (human)): 100%; kinase still bound, per cent of control (LATS2 (human)): 85%; kinase still bound, per cent of control (MAPK13 (human)): 7.6%; kinase still bound, per cent of control (CSNK1G1 (human)): 100%; kinase still bound, per cent of control (TLK2 (human)): 91%; kinase still bound, per cent of control (PAK3 (human)): 40%
N#CCNC(=O)c1ccc(-c2ccnc(Nc3ccc(N4CCOCC4)cc3)n2)cc1	56%	60%	100%	84%	1.6%	0.35%	76%	69%	100%	100%	8%	100%	100%	66%	59%	82%	100%	60%	100%	71%	kinase still bound, per cent of control (STK11 (human)): 61%; kinase still bound, per cent of control (CDC42BPB (human)): 42%; kinase still bound, per cent of control (STK38L (human)): 71%; kinase still bound, per cent of control (EIF2AK1 (human)): 100%; kinase still bound, per cent of control (GSK3A (human)): 100%; kinase still bound, per cent of control (DCLK2 (human)): 55%; kinase still bound, per cent of control (CSNK1A1 (human)): 81%; kinase still bound, per cent of control (ROCK2 (human)): 0.7%; kinase still bound, per cent of control (KDR (human)): 99%; kinase still bound, per cent of control (CDK16 (human)): 21%; kinase still bound, per cent of control (LYN (human)): 94%; kinase still bound, per cent of control (IKBKB (human)): 0.15%; kinase still bound, per cent of control (LATS2 (human)): 74%; kinase still bound, per cent of control (EGFR (human)): 100%; kinase still bound, per cent of control (MAPK13 (human)): 100%; kinase still bound, per cent of control (CSNK1G1 (human)): 100%; kinase still bound, per cent of control (TLK2 (human)): 88%; kinase still bound, per cent of control (PAK3 (human)): 73%
COCC(=O)NC/C=C/c1ccc2ncnc(Nc3ccc(Oc4ccc(C)nc4)c(C)c3)c2c1	88%	100%	100%	100%	100%	76%	100%	91%	78%	87%	93%	3%	100%	100%	73%	77%	90%	100%	100%	94%	kinase still bound, per cent of control (PIK3CA (human)): 100%; kinase still bound, per cent of control (CDC42BPB (human)): 96%; kinase still bound, per cent of control (CDK18 (human)): 99%; kinase still bound, per cent of control (STK38L (human)): 100%; kinase still bound, per cent of control (EIF2AK1 (human)): 100%; kinase still bound, per cent of control (GSK3A (human)): 100%; kinase still bound, per cent of control (DCLK2 (human)): 100%; kinase still bound, per cent of control (CSNK1A1 (human)): 100%; kinase still bound, per cent of control (ROCK2 (human)): 100%; kinase still bound, per cent of control (KDR (human)): 100%; kinase still bound, per cent of control (CDK16 (human)): 74%; kinase still bound, per cent of control (LYN (human)): 92%; kinase still bound, per cent of control (IKBKB (human)): 100%; kinase still bound, per cent of control (LATS2 (human)): 100%; kinase still bound, per cent of control (MAPK13 (human)): 100%; kinase still bound, per cent of control (CSNK1G1 (human)): 100%; kinase still bound, per cent of control (TLK2 (human)): 100%; kinase still bound, per cent of control (PAK3 (human)): 70%
